Measured values reported in paper PMC5431435, “A short artificial antimicrobial peptide shows potential to prevent or treat bone infections” (Scientific Reports, 2017).

Legend:
[1] = tested on: human primary osteoblast-like cells; type: cell-based
Method: (1) For the cytotoxicity test, 1 × 10^4 cells were seeded in 48-well plates with cultivation medium (CM) DMEM/Ham’s F-12 (D/H; Biochrom, Germany) + 10% fetal calf serum (FCS; Biochrom, Germany) + 1% penicillin/streptomycin (P/S; Biochrom, Germany) + 0.05 mM L-ascorbic-2 phosphate (L-Asc) + 0.05 mM β-glycerolphosphate (β-Glyc) and incubated overnight at 37 °C, 5% CO2 and 95% relative humidity. After adding the AMPs (3–542 µg/ml - depending on the AMP) or gentamicin (8–1024 µg/ml) in CM with 1% FCS, without Pen/Strep, cells were cultured for three days. Cell viability was determined with an AlamarBlue® assay before adding the AMPs and after 3 days. Alkaline phosphatase activity was measured on day 3.
Alamar Blue® (Biozol, Germany) was done according to the manufacturer’s instruction.

[2] = tested on: human primary osteoblast-like cells; settings: differentiation medium with 17 or 133 µg/ml AMP2, days 0, 7, 14, 21
Method: Confluent cells were cultured for 21 days in cultivation medium (CM), differentiation medium (DM: D/H + 10% FCS + 1% P/S + 0.5 mM L-Asc + 10 mM β-Glyc + 100 nM dexamethasone + 1.5 mM calcium chloride) and DM with a low (17 µg/ml) and a high (133 µg/ml) AMP2 concentration. Medium was changed every 3–4 days and fresh AMP was added by each change. Cells from two donors were used and the experiments were done in triplicate (n = 6).
Cells were incubated with 0.13% w/v 4-nitrophenyl phosphate disodium salt hexahydrate (Sigma-Aldrich, Germany) dissolved in 0.1 M AP-buffer (50 mM glycine, 100 mM Tris-Base, 1 mM MgCl2 in dH2O) at pH 10.5 for 30 min at 37 °C and absorbance was measured at 405 nm wavelength. […]
Cells were fixed with 3.7% v/v formalin for 10 min at RT and incubated with 0.5% w/v alizarin red (Sigma-Aldrich, Germany) in dH2O for 10 min at RT. Quantification was done by removing staining with 5% w/v SDS in 5 mM HCl and measuring absorbance at 570 nm.
RNA was isolated after 0, 7, 14 and 21 days in culture using the NucleoSpin RNA Kit (Macherey Nagel, Germany). […] For all primers, amplification efficiencies were analyzed and mean normalized expression (MNE) ratios were calculated using the ΔΔCt method with efficiency correction and normalization to the control (d0 of differentiation) and 18 S ribosomal RNA used as a reference gene.

S. aureus biofilm = assay: Biofilm assay by microcalorimetry and plating (MBCB); type: cell-based, Staphylococcus aureus; settings: for inhibition of the biofilm compared to the growth control: MH++, n = 6
Method: To confirm MIC of the AMP2 by isothermal microcalorimetry, three different bouillons were tested: Mueller-Hinton II bouillon with adjusted cations (MH^++; BBL, Germany), Mueller-Hinton bouillon with low cations (MH^+; with 3–4 mg/l Ca^2+ and 5–6 mg/l Mg^2+; Oxoid, Germany) and Mueller-Hinton bouillon without cations (MH^−; Merck, Germany). AMP2 concentrations of 2–33 µg/ml were tested with the three different bouillons and gentamicin concentrations of 0.125–2 µg/ml were analyzed with MH^++. Staphylococcus aureus (ATCC 29213, 300 µl with 10^5 cfu/ml) was added to each microcalorimetry glass ampoule (Waters; Germany) containing 3.7 ml of AMP or gentamicin solution of (n = 3). The ampoules were hermetically sealed and heat flow (W) was measured for 24 hours in the calorimeter TAM III (TA Instruments, USA). For the biofilm assay, S. aureus biofilm was grown on glass beads (4 mm diameter, 60 µm pores; ROBU Glasfilter-Geräte, Germany) in MH^++ bouillon at 37 °C in an aerobe atmosphere for 24 hours. After washing with sodium chloride, beads were incubated with AMP2 (133, 267, 533 µg/ml) or daptomycin (128 µg/ml) in MH^++ bouillon for another 24 hours at 37 °C. Beads were washed again and added to the glass ampoule with fresh MH^++ bouillon. The total heat (J) was measured for 48 hours in the calorimeter. A concentration, which inhibits minimum 90% of biofilm, can be defined as the minimal biofilm inhibitory concentration (MICB). All samples were tested with n = 6.
Furthermore, the MBC for biofilms (MBCB) where 99.9% of all bacteria are killed was determined. After measurement, bouillon and glass beads were plated on CA plates and incubated for 24 hours at 37 °C in an aerobe atmosphere.

S. aureus = assay: Effect of FCS on AMP2 activity; type: cell-based, Staphylococcus aureus; settings: for bacterial growth: then 3 h with S. aureus, mean ± StD, n = 3
Method: In a further experiment the possible effect of serum on AMP activity was investigated. AMP2 (67 µg/ml) was preincubated for 2 hours at 37 °C with different concentrations of FCS and then added to S. aureus.
In addition, the influence of fetal calf serum (FCS, containing 17 g/l albumin; Biochrom, Germany) on AMP activity was determined by preincubating 67 µg/ml of the AMP2 with 0–10% FCS at 37 °C for 2 hours followed by incubation with S. aureus for 3 hours. The control group, without AMP, was FCS free (n = 3).

KRRWRIWLV [AMP2, 9mer cationic antimicrobial peptide … from an optimized peptide library]
concentrations with no negative effect on cell viability [1]: < 267 µg/mL
concentrations with significant inhibition of viability compared to the control group [1]: ≥ 267 µg/mL
effect on the osteogenic differentiation (expression of RUNX2, AP, Col1) [2]: no effect
inhibition of the biofilm compared to the growth control (S. aureus biofilm; 133 µg/ml AMP2, total heat after 48 hours): 13 ± 4%
inhibition of the biofilm, single samples (S. aureus biofilm; 267 µg/ml AMP2, five of the six samples (the sixth completely killed the bacteria)): 18–38%
inhibition of the biofilm compared to the growth control (S. aureus biofilm; 267 µg/ml AMP2, total heat after 48 hours): 35 ± 29%
killing of the biofilm (MBCB determination by plating samples and glass beads) (S. aureus biofilm; 533 µg/ml AMP2, all samples, no growth on agar plates): totally killed
inhibition of the biofilm compared to the growth control (S. aureus biofilm; 533 µg/ml AMP2, total heat after 48 hours): 97 ± 1%
bacterial growth (S. aureus; AMP2 67 µg/ml preincubated 2 h at 37 °C with 0% FCS): 7 ± 9 cfu/ml
bacterial growth (S. aureus; AMP2 67 µg/ml preincubated 2 h at 37 °C with 0.1% FCS): 37 ± 13 cfu/ml
bacterial growth (S. aureus; AMP2 67 µg/ml preincubated 2 h at 37 °C with 1% FCS): 553 ± 255 cfu/ml
bacterial growth (S. aureus; AMP2 67 µg/ml preincubated 2 h at 37 °C with 10% FCS): 2,078 ± 540 cfu/ml
bacterial growth compared to the group without AMP (S. aureus; AMP2 67 µg/ml, 10% FCS): less than 2%
